Consider ten compounds from patent US20240208956A1, “1,3,4-OXADIAZOLE THIOCARBONYL COMPOUNDS AS HISTONE DEACETYLASE 6 INHIBITOR, AND PHARMACEUTICAL COMPOSITION COMPRISING THE SAME” (CHONG KUN DANG PHARMACEUTICAL CORP., priority 2021, published 2024).

One assay addresses HDAC6 human recombinant (Homo sapiens (Human), UniProt Q9UBN7). Kind of assay: HDAC enzyme activity inhibition (in vitro), HDAC6 fluorimetric assay. It is filed as biochemical. To be noted: samples at 0.1-1000 nM; 37° C. 60 minutes; fluorescence Ex 390 nm, Em 460 nm. The method, then: Confirmation of HDAC Enzyme Activity Inhibition (In Vitro)
(§1) An HDAC enzyme inhibitory capacity of test material was measured by using HDAC1 Fluorimetric Drug Discovery Assay Kit (Enzolifesciences: BML-AK511) and HDAC6 human recombinant (Calbiochem: 382180). For a HDAC1 assay, samples were treated at a concentration of 100 nM, 1000 nM and 10000 nM. For an HDAC6 assay, samples were treated at a concentration of 0.1 nM, 1 nM, 10 nM, 100 nM and 1000 nM. After the sample treatment, a reaction was continued at 37° C. for 60 minutes, treated with a developer, and subjected to reaction at 37° C. for 30 minutes, after which fluorescence intensity (Ex 390 nm, Em 460 nm) was measured by using FlexStation3 (Molecular device). For final result values, each […] value was calculated with GraphPad Prism 4.0 program.

The next assay concerns the target HDAC1 (Homo sapiens (Human), UniProt Q13547). The assay can be described thus: HDAC enzyme activity inhibition (in vitro), HDAC1 Fluorimetric Drug Discovery Assay Kit. To be noted: samples at 100, 1000 and 10000 nM; 37° C. 60 minutes; fluorescence Ex 390 nm, Em 460 nm. The class given is biochemical. How it is done: Experimental Example 1. Confirmation of HDAC Enzyme Activity Inhibition (In Vitro)
as §1

Each structure is given as a SMILES string.

Sequence of HDAC1 (Q13547 whole entry): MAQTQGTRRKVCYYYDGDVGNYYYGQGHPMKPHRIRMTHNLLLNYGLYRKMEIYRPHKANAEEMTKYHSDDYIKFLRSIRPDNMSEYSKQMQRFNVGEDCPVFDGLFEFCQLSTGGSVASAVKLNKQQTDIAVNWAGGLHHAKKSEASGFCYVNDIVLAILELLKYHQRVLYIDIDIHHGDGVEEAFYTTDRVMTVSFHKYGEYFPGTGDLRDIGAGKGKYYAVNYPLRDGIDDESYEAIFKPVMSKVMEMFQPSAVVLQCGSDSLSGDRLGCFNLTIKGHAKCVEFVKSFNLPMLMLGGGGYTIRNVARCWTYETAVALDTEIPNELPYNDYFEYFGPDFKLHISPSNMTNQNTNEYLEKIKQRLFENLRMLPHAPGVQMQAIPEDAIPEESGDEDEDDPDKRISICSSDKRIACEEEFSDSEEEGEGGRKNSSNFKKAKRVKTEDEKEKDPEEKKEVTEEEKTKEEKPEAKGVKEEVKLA
Sequence of HDAC6 human recombinant (Q9UBN7 whole entry): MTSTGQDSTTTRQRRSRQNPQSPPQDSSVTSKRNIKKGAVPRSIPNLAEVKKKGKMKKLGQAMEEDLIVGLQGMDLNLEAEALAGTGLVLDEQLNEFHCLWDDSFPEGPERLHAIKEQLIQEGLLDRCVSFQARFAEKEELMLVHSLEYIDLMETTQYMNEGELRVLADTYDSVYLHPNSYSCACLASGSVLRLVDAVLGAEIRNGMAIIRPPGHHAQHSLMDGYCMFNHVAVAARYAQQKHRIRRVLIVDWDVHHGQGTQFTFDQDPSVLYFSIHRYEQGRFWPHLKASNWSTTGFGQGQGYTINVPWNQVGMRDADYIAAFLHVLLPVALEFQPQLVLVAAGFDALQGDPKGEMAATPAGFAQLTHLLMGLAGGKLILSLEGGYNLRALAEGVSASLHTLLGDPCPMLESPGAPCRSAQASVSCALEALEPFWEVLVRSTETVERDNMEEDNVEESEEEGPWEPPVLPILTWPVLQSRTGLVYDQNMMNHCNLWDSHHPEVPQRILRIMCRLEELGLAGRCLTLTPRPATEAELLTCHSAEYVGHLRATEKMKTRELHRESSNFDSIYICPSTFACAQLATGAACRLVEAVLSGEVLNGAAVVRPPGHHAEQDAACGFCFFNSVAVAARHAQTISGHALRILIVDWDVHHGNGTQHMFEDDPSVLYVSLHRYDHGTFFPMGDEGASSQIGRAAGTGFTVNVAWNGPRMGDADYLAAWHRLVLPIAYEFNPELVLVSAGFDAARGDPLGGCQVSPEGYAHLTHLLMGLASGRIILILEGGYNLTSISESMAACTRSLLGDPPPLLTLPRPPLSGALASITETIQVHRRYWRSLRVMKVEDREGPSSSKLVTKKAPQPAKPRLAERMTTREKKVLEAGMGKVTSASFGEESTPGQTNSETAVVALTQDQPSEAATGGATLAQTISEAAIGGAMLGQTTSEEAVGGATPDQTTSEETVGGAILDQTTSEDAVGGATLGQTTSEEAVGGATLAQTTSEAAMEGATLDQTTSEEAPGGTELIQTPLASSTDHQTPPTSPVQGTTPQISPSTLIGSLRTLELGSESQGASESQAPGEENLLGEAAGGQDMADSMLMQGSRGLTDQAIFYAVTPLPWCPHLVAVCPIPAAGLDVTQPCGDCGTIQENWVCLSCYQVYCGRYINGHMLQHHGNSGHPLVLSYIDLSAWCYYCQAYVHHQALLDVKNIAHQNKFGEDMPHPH

What is called IC50 is the concentration needed to halve the response being measured. For `CN1CC2(C1)CN(C(=S)N(Cc1ccc(-c3nnc(C(F)F)o3)cc1)c1ccc(F)c(F)c1)C2` [Compound 30, N-(4-(5-(difluoromethyl)-1,3,4-oxadiazol-2-yl)benzyl)-N-(3,4-difluorophenyl)-6-methyl-2,6-diazaspiro[3.3]heptan-2-carbothioamide], the figures for the IC50 at HDAC6 human recombinant and against HDAC1 were 24 nM and above 10000 nM, respectively.
For `Fc1ccc(N(Cc2ccc(-c3nnc(C(F)F)o3)cc2)C(=S)N2CC3(C2)CN(C2COC2)C3)cc1` [Compound 22, N-(4-(5-(difluoromethyl)-1,3,4-oxadiazol-2-yl)benzyl)-N-(4-fluorophenyl)-6-(oxetan-3-yl)-2,6-diazaspiro[3.3]heptan-2-carbothioamide], the results for the IC50 at HDAC6 human recombinant and against HDAC1 were 83 nM and above 10000 nM, respectively.
Take `CN1CCC2(CC1)CC(C(=S)N(Cc1ccc(-c3nnc(C(F)F)o3)cc1F)c1ccccc1)C2` [Compound 8, N-(4-(5-(difluoromethyl)-1,3,4-oxadiazol-2-yl)-2-fluorobenzyl)-7-methyl-N-phenyl-7-azaspiro[3.5]nonan-2-carbothioamide]: the IC50 at HDAC6 human recombinant was 75 nM; against HDAC1, above 10000 nM.
The like results for `CN1CC2(C1)CN(C(=S)N(Cc1ccc(-c3nnc(C(F)F)o3)cc1F)c1ccc(F)c(Cl)c1)C2` [Compound 25, N-(3-chloro-4-fluorophenyl)-N-(4-(5-(difluoromethyl)-1,3,4-oxadiazol-2-yl)-2-fluorobenzyl)-6-methyl-2,6-diazaspiro[3.3]heptan-2-carbothioamide] were, in that order, 46 nM and above 10000 nM.
The like results for `CC(C)N1CC2(CN(C(=S)N(Cc3ccc(-c4nnc(C(F)F)o4)cc3)c3ccc(F)cc3)C2)C1` [Compound 21, N-(4-(5-(difluoromethyl)-1,3,4-oxadiazol-2-yl)benzyl)-N-(4-fluorophenyl)-6-isopropyl-2,6-diazaspiro[3.3]heptan-2-carbothioamide] were, in that order, 70 nM and above 10000 nM.
For `O=S1(=O)CCN(C(=S)N(Cc2ccc(-c3nnc(C(F)F)o3)cn2)c2ccccc2)CC1` [Compound 6, N-((5-(5-(difluoromethyl)-1,3,4-oxadiazol-2-yl)pyridin-2-yl)methyl)-N-phenylthiomorpholin-4-carbothioamide 1,1-dioxide] the same measures were 31 nM and above 10000 nM.
As to `CN1CCN(C(=S)N(Cc2ccc(-c3nnc(C(F)F)o3)cc2)c2ccccc2)CC1` [Compound 4, N-(4-(5-(difluoromethyl)-1,3,4-oxadiazol-2-yl)benzyl)-4-methyl-N-phenylpiperazin-1-carbothioamide], the IC50 was 37 nM at HDAC6 human recombinant and above 10000 nM against HDAC1.
For `Fc1cc(-c2nnc(C(F)F)o2)ccc1CN(C(=S)c1ccncc1)c1ccccc1` [Compound 9, N-(4-(5-(difluoromethyl)-1,3,4-oxadiazol-2-yl)-2-fluorobenzyl)-N-phenylpyridin-4-carbothioamide] the same measures were 138 nM and above 10000 nM.
For `Fc1cc(-c2nnc(C(F)F)o2)ccc1CN(C(=S)N1CC2(C1)CN(C1COC1)C2)c1ccc(Cl)c(Cl)c1` [Compound 24, N-(3,4-dichlorophenyl)-N-(4-(5-(difluoromethyl)-1,3,4-oxadiazol-2-yl)-2-fluorobenzyl)-6-(oxetan-3-yl)-2,6-diazaspiro[3.3]heptan-2-carbothioamide] the same measures were 83 nM and above 10000 nM.
For `CC(=O)N1CC2(C1)CN(C(=S)N(Cc1ccc(-c3nnc(C(F)F)o3)cc1F)c1ccc(F)c(F)c1)C2` [Compound 33, 6-acetyl-N-(4-(5-(difluoromethyl)-1,3,4-oxadiazol-2-yl)-2-fluorobenzyl)-N-(3,4-difluorophenyl)-2,6-diazaspiro[3.3]heptan-2-carbothioamide] the same measures were 35 nM and above 10000 nM.
